Results from paper PMC8632988, “Inhibition of SYK and cSrc kinases can protect bone and cartilage in preclinical models of osteoarthritis and rheumatoid arthritis” (Scientific Reports, 2021).
Where “and” joins values, the source holds several entries; their conditions need not be identical. Identical values can stand only once. Like-named read-outs stand apart in the source and are kept apart here.

Assay: Tissue distribution after single oral administration in rats
Type: in vivo, rat
Conditions: 100 mg/kg PO, male Wistar rats; for concentration at 24 h: male, Wistar, po; for concentration at 24 h / Cmax / Tmax / AUC / Kp / AUC(0-inf) / half-life: rat; for concentration at 24 h / Muscle concentration / Prostate concentration / Spleen concentration: 100 mg/kg; for Cmax / Tmax / AUC / Kp / AUC(0-inf) / half-life: Estimated Value; for AUC: read-out: AUC24; for Kp: read-out: AUC24/AUC24 (plasma); for half-life: read-out: Terminal t1/2 (converted)
Description: Experiments were performed at ChemPartner, Shanghai, China and approved by Institutional Ethics Committee (IEC) of ChemPartner. Male Wistar 10–12 weeks old rats with body weights of 185–220 g and male New Zealand rabbits with body weights of 2.0–2.3 kg were purchased from Shanghai SLAC Laboratory Animal Co., Ltd. MT-SYK-03 was administered to the three groups of rats (six rats per group) via oral gavage at 10 mL/kg concentration, and in rabbits 5 mL/kg concentration. Blood samples were kept on ice and centrifuged (2000 g, 4 ℃, 5 min) within 15 min post sampling.

COc1cc(Nc2ncnc(Nc3cc4c(cn3)NC(=O)C(C)(C)O4)n2)cc(OC)c1OC [MT-SYK-03]
concentration at 24 h (spleen, spleen, 24 h, individual animals, read-out: Spleen concentration): 30.3 ng/mL
concentration at 24 h (spleen, spleen, 24 h, mean, read-out: Spleen concentration, Mean): 30.3 ng/mL
Muscle concentration (muscle, 2 h, individual animals): 435 ng/mL and 416 ng/mL
Muscle concentration (muscle, 8 h, individual animals): 107 ng/mL and 93.2 ng/mL
Muscle concentration (muscle, 24 h, individual animals): 8.92 ng/mL and BQL
Prostate concentration (prostate, 2 h, individual animals): 1200 ng/mL and 1500 ng/mL
Prostate concentration (prostate, 8 h, individual animals): 500 ng/mL and 154 ng/mL and 98.0 ng/mL
Prostate concentration (prostate, 24 h, individual animals): BQL
Cmax (bone): 708 ng/mL
Tmax (bone): 8 h
AUC (bone): 9680 ng·h/mL
Kp (bone): 2.5
Cmax (joint): 663 ng/mL
Tmax (joint): 8 h
AUC (joint): 9650 ng·h/mL
Kp (joint): 2.49
AUC(0-inf) (kidney): 18300 ng·h/mL
Cmax (kidney): 2800 ng/mL
Tmax (kidney): 2 h
AUC (kidney): 18100 ng·h/mL
Kp (kidney): 4.68
half-life (kidney): 3.38 h
AUC(0-inf) (liver): 32400 ng·h/mL
Cmax (liver): 5250 ng/mL
Tmax (liver): 2 h
AUC (liver): 32100 ng·h/mL
Kp (liver): 8.3
half-life (liver): 3.28 h
AUC(0-inf) (muscle): 3150 ng·h/mL
Cmax (muscle): 436 ng/mL
Tmax (muscle): 2 h
AUC (muscle): 3120 ng·h/mL
Kp (muscle): 0.805
half-life (muscle): 3.7 h
AUC(0-inf) (prostate): 8080 ng·h/mL
Cmax (prostate): 1260 ng/mL
Tmax (prostate): 2 h
AUC (prostate): 7960 ng·h/mL
Kp (prostate): 2.05
half-life (prostate): 3.89 h
AUC(0-inf) (spleen): 12200 ng·h/mL
Cmax (spleen): 1910 ng/mL
Tmax (spleen): 2 h
AUC (spleen): 12000 ng·h/mL
Kp (spleen): 3.1
half-life (spleen): 3.81 h
Spleen concentration (spleen, 2 h, individual animals): 1420 ng/mL and 2260 ng/mL
Spleen concentration (spleen, 8 h, individual animals): 726 ng/mL and 129 ng/mL and 268 ng/mL
Spleen concentration (spleen, 24 h, individual animals): BQL
